Measurements as given in patent US20050049245A1, “Heteroaryl-ethanolamine derivatives as antiviral agents” (priority 2002, published 2005).
Read-outs that look alike come from different tables or passages of the source.

Experiments:
[1] = target: VZV polymerase (Varicella-zoster virus, UniProt P09252); test: VZV polymerase assay (Table 1); type: biochemical; conditions: VZV polymerase; read-out: Polymerase IC50 VZV
[2] = target: T1, HCMV polymerase (Human cytomegalovirus, UniProt P08546); test: HCMV polymerase scintillation proximity assay (SPA); type: biochemical
T1 construct: made in house; host or cells: recombinant baculovirus-infected SF-9 cells
T1 sequence (P08546 whole entry): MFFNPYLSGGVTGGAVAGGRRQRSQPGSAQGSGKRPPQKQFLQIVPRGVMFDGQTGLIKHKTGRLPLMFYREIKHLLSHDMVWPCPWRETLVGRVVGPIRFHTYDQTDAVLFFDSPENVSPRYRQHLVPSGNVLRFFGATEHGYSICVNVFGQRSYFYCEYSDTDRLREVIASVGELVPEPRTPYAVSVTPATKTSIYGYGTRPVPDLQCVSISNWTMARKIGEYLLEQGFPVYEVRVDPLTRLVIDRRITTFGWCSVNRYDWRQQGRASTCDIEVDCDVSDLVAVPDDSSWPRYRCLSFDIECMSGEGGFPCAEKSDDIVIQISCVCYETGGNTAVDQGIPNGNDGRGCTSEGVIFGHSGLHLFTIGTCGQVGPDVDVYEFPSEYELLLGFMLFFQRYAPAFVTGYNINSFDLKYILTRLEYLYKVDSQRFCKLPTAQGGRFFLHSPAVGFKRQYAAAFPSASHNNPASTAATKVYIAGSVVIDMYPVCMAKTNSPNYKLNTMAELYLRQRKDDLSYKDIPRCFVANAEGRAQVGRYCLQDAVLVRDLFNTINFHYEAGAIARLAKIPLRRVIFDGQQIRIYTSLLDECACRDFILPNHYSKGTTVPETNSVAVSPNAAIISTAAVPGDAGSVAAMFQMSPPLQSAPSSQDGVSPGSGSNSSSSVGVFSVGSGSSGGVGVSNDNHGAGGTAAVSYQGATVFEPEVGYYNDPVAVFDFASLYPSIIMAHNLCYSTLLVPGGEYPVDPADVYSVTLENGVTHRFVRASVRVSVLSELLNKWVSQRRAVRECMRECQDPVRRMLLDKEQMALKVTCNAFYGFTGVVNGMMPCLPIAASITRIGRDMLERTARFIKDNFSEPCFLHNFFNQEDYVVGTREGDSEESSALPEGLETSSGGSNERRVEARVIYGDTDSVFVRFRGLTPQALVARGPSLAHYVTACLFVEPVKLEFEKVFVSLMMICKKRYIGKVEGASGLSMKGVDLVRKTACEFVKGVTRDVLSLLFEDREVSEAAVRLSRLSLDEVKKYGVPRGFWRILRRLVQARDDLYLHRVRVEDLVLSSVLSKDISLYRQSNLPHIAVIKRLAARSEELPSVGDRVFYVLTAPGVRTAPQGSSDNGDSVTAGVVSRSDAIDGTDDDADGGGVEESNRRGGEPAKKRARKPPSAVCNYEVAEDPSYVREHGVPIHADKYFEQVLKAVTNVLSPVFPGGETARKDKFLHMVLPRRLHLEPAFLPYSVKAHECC
Protocol: The HCMV polymerase assay is performed using a scintillation proximity assay (SPA) as described in several references, such as N. D. Cook, et al., Pharmaceutical Manufacturing International, pages 49-53 (1992); KY Takeuchi, Laboratory Practice, September issue (1992); U.S. Pat. No. 4,568,649 (1986); which are incorporated by reference herein. Reactions are performed in 96-well plates. The assay is conducted in 100 yl volume with 5.4 mM HEPES (pH 7.5), 11.7 mM KCl, 4.5 mM MgCl2, 0.36 mg/ml BSA, and 90 nM ^3H-dTTP. Assays are run with and without CHAPS, (3-[(3-Cholamidopropyl)-dimethylammonio]-1-propane-sulfonate) at a final concentration of 2 mM. HCMV polymerase is diluted in enzyme dilution buffer containing 50% glycerol, 250 mM NaCl, 10 mM HEPES (pH 7.5), 100 μg/ml BSA, and 0.01% sodium azide. The HCMV polymerase, which is expressed in recombinant baculovirus-infected SF-9 cells and purified according to literature procedures, is added at 10% (or 10 μl) of the final reaction volume, i.e., 100 μl. Compounds are diluted in 50% DMSO and 10 μl are added to each well. Control wells contain an equivalent concentration of DMSO. Unless noted otherwise, reactions are initiated via the addition of 6 nM biotinylated poly(dA)-oligo(dT) template/primer to reaction mixtures containing the enzyme, substrate, and compounds of interest. Plates are incubated in a 25° C. or 37° C. H2O bath and terminated via the addition of 40 μl/reaction of 0.5 M EDTA (pH 8) per well. Reactions are terminated within the time-frame during which substrate incorporation is linear and varied depending upon the enzyme and conditions used, i.e., 30 min. for HCMV polymerase. Ten (10) μl of streptavidin-SPA beads (20 mg/ml in PBS/10% glycerol) are added following termination of the reaction. Plates are incubated 10 min. at 37° C., then equilibrated to room temperature, and counted on a Packard Topcount. Linear regressions are performed and IC50's are calculated using computer software.
A modified version of the above HCMV polymerase assay is performed as described above, but with the following changes: Compounds are diluted in 100% DMSO until final dilution into assay buffer. In the previous assay, compounds are diluted in 50% DMSO. 4.5 mM Dithiothreitol (DTT) is added to the polymerase buffer.
All results are listed as Polymerase IC50 ([…]) values. In Table 1, the term “n.d.” refers to activity data not determined.

[3] = target: HSV polymerase (Human herpesvirus 1, UniProt P04293); test: HSV polymerase assay (Table 1); type: biochemical; conditions: HSV polymerase; read-out: Polymerase IC50 HSV
HSV polymerase, sequence (P04293 whole entry): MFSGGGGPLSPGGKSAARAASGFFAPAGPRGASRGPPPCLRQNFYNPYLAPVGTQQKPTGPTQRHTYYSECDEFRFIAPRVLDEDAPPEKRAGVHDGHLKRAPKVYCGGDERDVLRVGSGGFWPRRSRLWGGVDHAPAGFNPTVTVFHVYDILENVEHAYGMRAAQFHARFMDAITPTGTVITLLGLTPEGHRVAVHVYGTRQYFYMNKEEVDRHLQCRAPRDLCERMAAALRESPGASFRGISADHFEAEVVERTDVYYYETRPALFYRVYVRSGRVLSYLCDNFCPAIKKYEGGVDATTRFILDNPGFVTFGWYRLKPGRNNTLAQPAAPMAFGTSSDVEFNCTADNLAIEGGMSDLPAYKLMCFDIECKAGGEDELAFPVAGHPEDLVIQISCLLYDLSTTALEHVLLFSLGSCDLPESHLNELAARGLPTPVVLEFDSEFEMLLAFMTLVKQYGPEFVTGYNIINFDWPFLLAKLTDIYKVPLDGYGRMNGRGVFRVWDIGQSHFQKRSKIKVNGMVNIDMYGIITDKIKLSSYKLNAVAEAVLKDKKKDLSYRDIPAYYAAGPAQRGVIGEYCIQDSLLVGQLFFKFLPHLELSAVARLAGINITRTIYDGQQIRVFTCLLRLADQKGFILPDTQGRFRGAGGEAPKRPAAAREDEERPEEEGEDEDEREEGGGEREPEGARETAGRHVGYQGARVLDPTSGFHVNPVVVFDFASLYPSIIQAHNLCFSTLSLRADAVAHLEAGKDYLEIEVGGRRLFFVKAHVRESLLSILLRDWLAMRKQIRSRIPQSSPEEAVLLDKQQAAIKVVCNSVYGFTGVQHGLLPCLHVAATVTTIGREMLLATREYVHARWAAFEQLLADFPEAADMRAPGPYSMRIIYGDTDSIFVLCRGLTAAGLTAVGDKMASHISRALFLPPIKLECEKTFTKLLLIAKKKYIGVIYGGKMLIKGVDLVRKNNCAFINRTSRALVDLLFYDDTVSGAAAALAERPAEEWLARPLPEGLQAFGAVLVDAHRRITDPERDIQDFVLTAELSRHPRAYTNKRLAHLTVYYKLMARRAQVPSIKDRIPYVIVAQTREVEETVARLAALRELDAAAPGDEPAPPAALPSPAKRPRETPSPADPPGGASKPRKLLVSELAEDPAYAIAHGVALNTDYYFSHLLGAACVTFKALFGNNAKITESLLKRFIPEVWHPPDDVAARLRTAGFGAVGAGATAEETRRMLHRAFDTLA

[4] = HCMV polymerase, SPA, read-out: Polymerase IC50 HCMV

VZV polymerase, sequence (P09252 whole entry): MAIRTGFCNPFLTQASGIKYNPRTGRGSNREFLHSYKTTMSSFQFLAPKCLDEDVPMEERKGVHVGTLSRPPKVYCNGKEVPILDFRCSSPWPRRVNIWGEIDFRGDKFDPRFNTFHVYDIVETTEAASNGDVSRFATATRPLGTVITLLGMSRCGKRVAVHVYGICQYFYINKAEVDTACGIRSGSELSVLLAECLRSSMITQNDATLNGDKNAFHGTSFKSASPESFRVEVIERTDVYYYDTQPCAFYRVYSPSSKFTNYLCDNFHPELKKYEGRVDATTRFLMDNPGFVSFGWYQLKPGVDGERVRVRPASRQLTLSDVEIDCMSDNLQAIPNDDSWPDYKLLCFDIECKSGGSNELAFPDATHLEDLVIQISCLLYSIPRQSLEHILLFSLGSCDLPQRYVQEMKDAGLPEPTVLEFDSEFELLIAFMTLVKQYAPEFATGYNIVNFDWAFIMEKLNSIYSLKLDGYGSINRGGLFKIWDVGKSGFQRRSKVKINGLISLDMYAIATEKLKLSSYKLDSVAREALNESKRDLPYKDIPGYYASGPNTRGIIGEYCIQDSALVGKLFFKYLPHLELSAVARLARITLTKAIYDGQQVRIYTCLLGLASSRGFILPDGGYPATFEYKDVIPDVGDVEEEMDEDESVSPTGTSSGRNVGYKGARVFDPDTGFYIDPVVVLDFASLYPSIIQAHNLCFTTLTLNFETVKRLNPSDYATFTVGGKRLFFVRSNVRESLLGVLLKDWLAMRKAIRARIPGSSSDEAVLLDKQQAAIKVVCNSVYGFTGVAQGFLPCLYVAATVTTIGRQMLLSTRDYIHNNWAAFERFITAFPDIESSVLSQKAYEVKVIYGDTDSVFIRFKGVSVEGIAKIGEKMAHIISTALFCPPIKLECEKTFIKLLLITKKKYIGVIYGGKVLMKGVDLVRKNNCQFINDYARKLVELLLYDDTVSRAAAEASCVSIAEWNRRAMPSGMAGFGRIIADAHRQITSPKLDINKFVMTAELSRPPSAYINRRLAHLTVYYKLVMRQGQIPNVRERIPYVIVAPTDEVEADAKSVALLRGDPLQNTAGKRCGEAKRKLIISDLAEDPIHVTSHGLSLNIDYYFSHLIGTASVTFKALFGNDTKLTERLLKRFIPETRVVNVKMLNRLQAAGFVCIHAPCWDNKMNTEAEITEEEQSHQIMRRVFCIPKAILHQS

SMILES	IC50 [1] [nM]	IC50 [2, 4] [nM]	melting point	IC50 [3] [nM]	IC50 [2] [nM]
CN(Cc1cc2c(=O)c(C(=O)NCc3ccc(Cl)cc3)cn(C)c2s1)CC(O)c1csc2ccccc12 (racemic) [Example 13, rac-2-(((2-(1-Benzothien-3-yl)-2-hydroxyethyl)(methyl)amino)methyl)-N-(4-chlorobenzyl)-7-methyl-4-oxo-4,7-dihydrothieno[2,3-b]pyridine-5-carboxamide]	440	170	213 to 219 °C (dec.)	1920	–
CN(Cc1cc2c(=O)c(C(=O)NCc3ccc(Cl)cc3)cn(C)c2s1)CC(O)c1nccs1 (racemic) [Example 16, rac-N-(4-Chlorobenzyl)-2-(((2-hydroxy-2-(1,3-thiazol-2-yl)ethyl)(methyl)amino)-methyl)-7-methyl-4-oxo-4,7-dihydrothieno[2,3-b]pyridine-5-carboxamide]	190	–	129 to 133 °C	450	200
CN(Cc1cc2c(=O)c(C(=O)NCc3ccc(Cl)cc3)cn(C)c2s1)CC(O)c1c[nH]c2ccccc12 (racemic) [Example 11, rac-N-(4-Chlorobenzyl)-2-(((2-hydroxy-2-(1H-indol-3-yl)ethyl)(methyl)amino)-methyl)-7-methyl-4-oxo-4,7-dihydrothieno[2,3-b]pyridine-5-carboxamide]	90	90	120 to 123 °C	200	–
COCCn1cc(C(=O)NCc2ccc(Cl)cc2)c(=O)c2cc(CN(C)CC(O)c3cc4ccccc4o3)sc21 (racemic) [Example 24, rac-2-(((2-(1-Benzofuran-2-yl)-2-hydroxyethyl)(methyl)amino)methyl)-N-(4-chlorobenzyl)-7-(2-methoxyethyl)-4-oxo-4,7-dihydrothieno[2,3-b]pyridine-5-carboxamide]	–	310	133 to 140 °C	–	–
Cc1cc(C(O)CN(C)Cc2cc3c(=O)c(C(=O)NCc4ccc(Cl)cc4)cn(C)c3s2)oc1C (racemic) [Example 30, rac-N-(4-Chlorobenzyl)-2-(((2-(4,5-dimethyl-2-furyl)-2-hydroxyethyl)(methyl)-amino)methyl)-7-methyl-4-oxo-4,7-dihydrothieno[2,3-b]pyridine-5-carboxamide]	200	140	166 to 167 °C	620	–
CN(Cc1cc2c(=O)c(C(=O)NCc3ccc(Cl)cc3)cn(C)c2s1)CC(O)c1c[nH]cn1 (racemic) [Example 10, rac-N-(4-Chlorobenzyl)-2-(((2-hydroxy-2-(1H-imidazol-4-yl)ethyl)(methyl)amino)methyl)-7-methyl-4-oxo-4,7-dihydrothieno[2,3-b]pyridine-5-carboxamide]	440	450	164 to 169 °C	1970	–
CN(Cc1cc2c(=O)c(C(=O)NCc3ccc(Cl)cc3)cn(C)c2s1)CC(O)c1cccn1C (racemic) [Example 8, rac-N-(4-Chlorobenzyl)-2-(((2-hydroxy-2-(1-methyl-1H-pyrrol-2-yl)ethyl)-(methyl)amino)methyl)-7-methyl-4-oxo-4,7-dihydrothieno[2,3-b]pyridine-5-carboxamide]	320	260	140 to 145 °C	850	–
Cc1cc(C(O)CN(C)Cc2cc3c(=O)c(C(=O)NCc4ccc(Cl)cc4)cn(C)c3s2)c(C)o1 (racemic) [Example 12, rac-N-(4-Chlorobenzyl)-2-(((2-(2,5-dimethyl-3-furyl)-2-hydroxyethyl)(methyl)-amino)methyl)-7-methyl-4-oxo-4,7-dihydrothieno[2,3-b]pyridine-5-carboxamide]	–	280	167 to 172 °C	–	–
CCn1cc(C(=O)NCc2ccc(Cl)cc2)c(=O)c2cc(CN(C)C[C@@H](O)c3ccco3)sc21 [Example 20, N-(4-Chlorobenzyl)-7-ethyl-2-((((2R)-2-(2-furyl)-2-hydroxyethyl)(methyl)amino)-methyl)-4-oxo-4,7-dihydrothieno [2,3-b]pyridine-5-carboxamide]	200	220	123 to 127 °C	460	–
